Measured values taken from patent publication US8431131B2, “CD38 and obesity” (Mayo Foundation for Medical Education and Research, priority 2007, dated 2013).
Blank lines part the entries; values can stand above or below the compound they belong to.

Assays:
[1] = test system: cADPR-induced Ca2+ release; test: cADPR-induced Ca2+ release in sea urchin egg homogenates; assay type: biochemical, Lytechinus pictus; details: 100 nM cADPR, 1 minute pre-incubation with 100 μM drug
Procedure: FIG. 8. The effect of resveratrol and sirtinol upon the cADPR system. In A, ADP ribosyl cyclase activity was measured in liver plasma membranes using NGD as a substrate. Mice were treated with 100 μM of a test drug: DTT (dithiothreitol), resverastrol (Resv), or sirtinol. The control mice received no addition. […] In B, cADPR-induced Ca^2+ was measured in sea urchin egg homogenates. Ca^2+ was induced by 100 nM of cADPR with no further additions, or with 1 minute pre-incubation of 100 μM of the testing drugs 8-Br-cADPR (8-Br), resveratrol (Resv), or sirtinol. In C, experiments were conducted in smooth muscle cells in culture as described in FIG. 1E. Four to six hours before fixation and staining with acetylated P53 antibody, cells were treated with 100 μM of the testing drugs. 3-Deaza-cADPR is a cell permeable cADPR agonist. […] All experiments were repeated three to four times. The asterisk denotes significant differences between control and treatment. cADPR-induced Ca^2+ release was determined in sea urchin egg homogenates using fluo-3 as a Ca^2+ indicator as described elsewhere (Chini, Braz. J. Med. Biol. Res., 35:543-547 (2002)). […] Fluo-3 fluorescence was monitored at 490 nm excitation and 535 nm emission in a 250-μL cuvette, held at 17° C. with a circulating water bath and continuously mixed with a magnetic stirring bar, in a Hitachi spectrofluorometer (F-2000).

[2] = test system: ADP ribosyl cyclase; test: ADP ribosyl cyclase activity (cADPR synthesis) in liver plasma membranes using NGD as substrate; assay type: biochemical, mice; details: 100 μM test drug
Procedure: (§1) FIG. 8. The effect of resveratrol and sirtinol upon the cADPR system. In A, ADP ribosyl cyclase activity was measured in liver plasma membranes using NGD as a substrate. Mice were treated with 100 μM of a test drug: DTT (dithiothreitol), resverastrol (Resv), or sirtinol. The control mice received no addition. Similar results were obtained using purified Aplysia ADPribosyl cyclase. In B, cADPR-induced Ca^2+ was measured in sea urchin egg homogenates. Ca^2+ was induced by 100 nM of cADPR with no further additions, or with 1 minute pre-incubation of 100 μM of the testing drugs 8-Br-cADPR (8-Br), resveratrol (Resv), or sirtinol. In C, experiments were conducted in smooth muscle cells in culture as described in FIG. 1E. Four to six hours before fixation and staining with acetylated P53 antibody, cells were treated with 100 μM of the testing drugs. 3-Deaza-cADPR is a cell permeable cADPR agonist. […] All experiments were repeated three to four times. The asterisk denotes significant differences between control and treatment.
(§2) ADP-ribosyl cyclase polypeptide activity was measured using the NGD technique as described herein, and NADase polypeptide activity was determined using etheno-NAD as described elsewhere (Johnson et al., Diabetes, 55:2737-2746 (2006)). […] Activity was determined by measuring the change in fluorescence over time at 300 nm excitation and 410 nm emission.

[3] = test system: high fat diet-induced obesity; test: High fat diet-induced obesity in mice; assay type: in vivo; details: 30 mg/kg/day intraperitoneal, two weeks of HFD
Procedure: FIG. 9. […] Wild type mice were treated with resveratrol (a SIRT stimulator), and CD38 (−/−) mice were treated with Sirtinol (a SIRT antagonist) during 2 weeks of high fat diet. […] The number of animals in each group was between four and six.
Metabolic Studies and Diet At one year of age, CD38 (−/−) mice were placed on either a normal caloric diet (NCD; diet number 3807, KLIBA-NAFAG) or an HFD (AIN-93G modified to provide 60% of calories from fat, Researchdiets) ad libitum and monitored for six weeks. Body weight was recorded weekly, and food intake was measured for seven consecutive days. Oxygen consumption and energy expenditure (ER) measurements were performed in mice fed HFD for four weeks, and quantification of blood metabolites were performed. For the experiments using resveratrol and sirtinol, the HFD was supplemented with daily intraperitoneal injections of 30 mg/kg of drug (or vehicle) for two weeks. Cultured Smooth Muscle Cells from Wild-Type and CD38 Knockout Mice
Wild type mice were treated with 30 mg/kg/day of resveratrol, and CD38 (−/−) were treated with the same dose of sirtinol to determine the role of the SIRT enzymes upon high fat diet-induced obesity.

[4] = test system: acetylated P53; test: Acetylated p53 immuno-staining in cultured smooth muscle cells (measure of endogenous SIRT activity); assay type: cell-based, mice; details: 100 μM, four to six hours
Procedure: as §1
For experiments, cells were made quiescent by replacing the growth medium with SmBM without serum or growth factors. Cell medium was again replaced with SmBM containing testing agents solubilized in 0.1% DMSO or water added to the final concentrations.
Smooth muscle cells were obtained as described above. Cells were fixed in suspension in PBS plus 2% paraformaldehyde for 20 minutes at room temperature with constant agitation, and cells were washed three times for 10 minutes with TBS-Triton X-100 (0.1%). After that, cells were incubated in blocking buffer (TBS, 30 mM glycine, and 5% BSA) for 60 minutes and incubated with anti-acetylated p53 rabbit polyclonal antibody (1:1000) (Abcam, Inc.; Cambridge, Mass.) overnight at 4° C. with constant agitation. […]
Laser confocal images were obtained using the Olympus Fluoview laser scanning confocal microscopy, with objective Olympus UplanApo oil, 100×, 1.35 numerical aperture. Nuclei were excited at 543 nm, and their emission recorded at 570 nm.

[5] = test system: Ca2+ release induced by oxytocin; test: Oxytocin-induced Ca2+ release in smooth muscle cells (control experiments); assay type: cell-based, mice; details: same conditions as p53 experiment
[6] = target: T1, SIRT1 (Homo sapiens, UniProt Q96EB6); test: Effect of CD38 metabolites on SIRT1 activity; assay type: biochemical
T1 construct: purchased Biomol International, LP
T1 sequence (Q96EB6 1-747): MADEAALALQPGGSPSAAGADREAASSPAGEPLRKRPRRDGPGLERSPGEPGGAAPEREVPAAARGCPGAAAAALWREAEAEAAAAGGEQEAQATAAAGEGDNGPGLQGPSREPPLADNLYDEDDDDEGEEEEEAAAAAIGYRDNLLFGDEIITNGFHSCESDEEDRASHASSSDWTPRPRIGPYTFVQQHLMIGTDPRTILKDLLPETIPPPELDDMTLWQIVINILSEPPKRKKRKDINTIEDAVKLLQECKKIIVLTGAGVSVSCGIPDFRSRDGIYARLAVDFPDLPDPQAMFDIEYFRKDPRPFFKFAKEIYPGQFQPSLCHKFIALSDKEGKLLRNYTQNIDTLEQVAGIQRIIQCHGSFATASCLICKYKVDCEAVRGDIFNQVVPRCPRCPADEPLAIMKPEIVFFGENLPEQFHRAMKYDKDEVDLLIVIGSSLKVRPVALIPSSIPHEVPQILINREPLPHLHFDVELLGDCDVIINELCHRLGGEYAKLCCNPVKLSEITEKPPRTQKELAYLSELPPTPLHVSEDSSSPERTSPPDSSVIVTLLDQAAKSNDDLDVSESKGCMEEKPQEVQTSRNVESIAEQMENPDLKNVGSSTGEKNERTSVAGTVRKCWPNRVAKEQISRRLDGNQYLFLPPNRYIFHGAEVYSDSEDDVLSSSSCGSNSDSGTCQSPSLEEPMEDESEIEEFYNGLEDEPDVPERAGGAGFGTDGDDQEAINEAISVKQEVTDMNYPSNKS
Procedure: SIRT1 polypeptide activity was determined using the SIRT1 Fluorimetric Kit (Biomol International, LP; Plymouth Meeting, Pa.) according to the manufacturer's instructions. Briefly, nuclei prepared from wild-type or CD38 knockout mice (1 μg protein/well) were incubated in 40 mM Tris-HCl (pH 7.4) containing human recombinant SIRT1 (1 U/assay), 500 μM NAD+, and 100 μM Flour de Lys-SIRT1 substrate for 30 minutes at 37° C. Following incubation, the reaction was terminated by addition of a solution containing Flour de Lys Developer and 2 mM nicotinamide. Values were determined by reading fluorescence on a fluorimetric plate reader (Spectramax Gemini XPS; Molecular Devices; Sunnyvale, Calif.) with an excitation wavelength of 360 nm and emitted wavelength of 460 nm. Calculation of net fluorescence expressed as percent of control included the subtraction of a blank consisting of buffer containing no NAD+. Endogenous SIRT polypeptide activity was determined as described above with the exception that no recombinant SIRT enzyme was added to the reaction mixture and that the nuclear preparations were sonicated before the assay. The data were expressed as NAD stimulated deacetylation.
CD38 metabolites were tested for an effect on SIRT1 activity.

[7] = target: T2, CD38 polypeptide (Homo sapiens, UniProt P28907); test: CD38 NADase activity assay with etheno-NAD as substrate; assay type: biochemical; details: 1 mM, 10 minutes incubation
T2 sequence (P28907 1-300): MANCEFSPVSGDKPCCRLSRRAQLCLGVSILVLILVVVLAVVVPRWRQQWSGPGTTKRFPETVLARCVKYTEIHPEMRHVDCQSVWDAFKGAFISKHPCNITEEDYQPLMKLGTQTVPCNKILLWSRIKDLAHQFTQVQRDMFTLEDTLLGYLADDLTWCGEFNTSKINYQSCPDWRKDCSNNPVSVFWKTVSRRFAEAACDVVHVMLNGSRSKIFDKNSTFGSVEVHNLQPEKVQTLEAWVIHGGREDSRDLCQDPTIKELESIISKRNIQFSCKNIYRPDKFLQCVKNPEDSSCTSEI
Text: Agents that can inhibit CD38 expression or activity in cells can be identified by screening candidate agents (e.g., from synthetic compound libraries and/or natural product libraries). Candidate agents can be obtained from any commercial source and can be chemically synthesized using methods that are known to those of skill in the art. Candidate agents can be screened and characterized using in vitro cell-based assays, cell free assays, and/or in vivo animal models. For example, a CD38 NADase assay can be used to identify CD38 antagonists. NADase activity can be determined using etheno-NAD. Enzyme preparations (e.g., purified CD38) can be incubated in a medium containing, for example, 0.2 mM […], 0.25 M sucrose, and 40 mM Tris-HCl (pH 7.2) at 37° C. NADase activity can be determined by measuring the change in fluorescence over time at, for example, 300 nm excitation and 410 nm emission. Candidate agents can be added to the CD38 assay, and a decrease of the NADase activity compared to control can be determined. […]
as §2, with “emission. […]” for “emission.”

Compound: Oc1ccc(C=Cc2cc(O)cc(O)c2)cc1 [resveratrol]
effect upon cADPR-induced Ca2+ release [1]: Neither resveratrol (a SIRT activator) nor sirtinol (a SIRT inhibitor) exhibited any effect
effect upon cADPR synthesis (ADP ribosyl cyclase activity) [2]: Neither resveratrol (a SIRT activator) nor sirtinol (a SIRT inhibitor) exhibited any effect
protection against high fat diet-induced obesity ([3]; wild type mice): protected against high fat induced obesity
acetylated p53 level ([4]; smooth muscle cells from wild type mice): decreased acetylated p53

Compound: 3-Deaza-cADPR
effect on oxytocin-induced Ca2+ release [5]: increased oxytocin effect

effect on SIRT1 activity [6]: exhibited an effect
CD38 NADase activity [7]: substantial inhibition
Compound: NC(=O)c1cccnc1 [nicotinamide]

Compound: N=c1c2nc(Br)n3c2ncn1C1OC(COP(=O)(O)OP(=O)(O)OCC2OC3C(O)C2O)C(O)C1O (centres unmarked) [8-Br-cADPR]
effect on oxytocin-induced Ca2+ release [5]: blocked Ca^2+ release induced by oxytocin
levels of p53 acetylation in cells ([4]; smooth muscle cells): neither the cell permeable cADPR antagonist (8-br-cADPR) nor the cADPR agonist (3-deaza-cADPR) had any effect

Compound: CC(NC(=O)c1ccccc1/N=C/c1c(O)ccc2ccccc12)c1ccccc1 (centres unmarked) [sirtinol]
effect upon cADPR synthesis (ADP ribosyl cyclase activity) [2]: nor sirtinol (a SIRT inhibitor) exhibited any effect
protective effect of CD38 knock out upon high fat diet-induced obesity ([3]; CD38 (−/−) mice): abrogated
weight gain compared with vehicle treated CD38 (−/−) mice ([3]; CD38 (−/−) mice): gained a statistically significant amount of weight
acetylated p53 level ([4]; smooth muscle cells from CD38 (−/−) mice): increased acetylated p53

effect on SIRT1 activity [6]: exhibited an effect
Compound: NC(=O)c1ccc[n+]([C@@H]2O[C@H](COP(=O)([O-])OP(=O)(O)OC[C@H]3O[C@@H](n4cnc5c(N)ncnc54)[C@H](O)[C@@H]3O)[C@@H](O)[C@H]2O)c1 [NAD]
